Results published in the NIST ThermoML archive (doi:10.1021/je0500734).

Experiments:
[1] = 101.33 kPa, Liquid; for speed of sound: acoustic time of flight gauge
[2] = xn = mol fraction of the nth substance listed; conditions: 101.33 kPa, Liquid; for speed of sound: acoustic time of flight gauge

[2H]C([2H])([2H])[N+](=O)[O-] [deuteronitromethane]
[1]
Conditions	kinematic viscosity [m2/s]	mass density [kg/m3]	speed of sound [m/s]	viscosity [mPa·s]
293.15 K	6.05e-07	1194.74	1291.1	–
295.15 K	5.81e-07	1190.43	1283.2	–
298.15 K	5.7e-07	1187.71	1271.3	–
300.15 K	5.49e-07	1184.73	1263.3	–
303.15 K	5.26e-07	1181.86	1251.4	–
303.5 K	6.27e-07	1180.03	–	0.6274
305.15 K	5.13e-07	1178.3	1243.5	–
307.5 K	5.82e-07	1172.08	–	0.5819
308.15 K	4.92e-07	1173.28	1231.6	–

[2H]C([2H])([2H])[N+](=O)[O-] [deuteronitromethane] + CCCCCO
[2]
Conditions	mass density, 303.5 K [kg/m3]	mass density, 307.5 K [kg/m3]	viscosity, 303.5 K [mPa·s]	viscosity, 307.5 K [mPa·s]
x1 = 0.08	823.07	819.05	–	–
x1 = 0.103	–	–	2.46	2.158
x1 = 0.178	843.08	838.92	–	–
x1 = 0.206	–	–	2.16	1.82
x1 = 0.245	858.21	853.8	–	–
x1 = 0.302	–	–	1.796	1.517
x1 = 0.351	883.03	878.4	–	–
x1 = 0.401	896.26	891.53	–	–
x1 = 0.418	–	–	1.447	1.251
x1 = 0.49	922.6	917.6	–	–
x1 = 0.502	–	–	1.24	1.077
x1 = 0.598	–	–	1.069	0.9159
x1 = 0.615	966.2	960.5	1.033	0.8939
x1 = 0.644	–	–	1.026	0.8578
x1 = 0.669	988.3	982.16	–	–
x1 = 0.749	1024.62	1018.46	–	–
x1 = 0.758	–	–	0.7821	0.7064
x1 = 0.801	–	–	0.7859	0.6878
x1 = 0.86	1084.42	1077.9	–	–
x1 = 0.904	–	–	0.6496	0.5971
x1 = 0.959	1149.88	1142.39	–	–
x1 = 1	1180.03	1172.08	0.6274	0.5819

C[N+](=O)[O-] [nitromethane]
[1]
Conditions	kinematic viscosity [m2/s]	mass density [kg/m3]	speed of sound [m/s]	viscosity [mPa·s]
293.15 K	6.01e-07	1137.21	1337.6	–
295.15 K	5.77e-07	1133.14	1329.5	–
298.15 K	5.62e-07	1130.42	1317.4	–
300.15 K	5.47e-07	1127.55	1309.4	–
301.15 K	–	1126.24	1305.3	0.6091
301.3 K	–	1126.04	–	0.6074
303.15 K	5.25e-07	1123.49	1297.3	–
305.15 K	5.1e-07	1120.82	1289.2	–
306.15 K	–	1119.36	1285.2	0.5636
306.3 K	–	1119.15	–	0.5623
308.15 K	4.89e-07	1116.54	1277.1	–

C[N+](=O)[O-] [nitromethane] + CCCCCO
[2]
Conditions	mass density [kg/m3]	speed of sound [m/s]	viscosity [mPa·s]
301.15 K, x1 = 0.065	818.89	–	–
301.15 K, x1 = 0.099	–	1258.1	–
301.15 K, x1 = 0.113	–	–	2.379
301.15 K, x1 = 0.127	828.49	–	–
301.15 K, x1 = 0.186	838.83	–	–
301.15 K, x1 = 0.202	–	1252.1	–
301.15 K, x1 = 0.203	–	–	2.119
301.15 K, x1 = 0.26	852.95	–	–
301.15 K, x1 = 0.302	–	1248.3	–
301.15 K, x1 = 0.31	863.38	–	–
301.15 K, x1 = 0.314	–	–	1.743
301.15 K, x1 = 0.398	883.3	–	1.487
301.15 K, x1 = 0.401	–	1245.4	–
301.15 K, x1 = 0.469	–	–	1.231
301.15 K, x1 = 0.502	–	1242.7	–
301.15 K, x1 = 0.503	910.3	–	–
301.15 K, x1 = 0.516	–	–	1.111
301.15 K, x1 = 0.54	920.98	–	–
301.15 K, x1 = 0.616	944.27	–	–
301.15 K, x1 = 0.619	–	1243.9	–
301.15 K, x1 = 0.62	–	–	0.9425
301.15 K, x1 = 0.699	973.7	–	–
301.15 K, x1 = 0.701	–	1247	–
301.15 K, x1 = 0.752	–	–	0.7812
301.15 K, x1 = 0.753	994.05	–	–
301.15 K, x1 = 0.801	–	–	0.7348
301.15 K, x1 = 0.802	1016.76	1258.9	–
301.15 K, x1 = 0.824	–	–	0.679
301.15 K, x1 = 0.849	–	–	0.673
301.15 K, x1 = 0.902	–	1281.2	–
301.15 K, x1 = 0.911	1070.91	–	–
301.15 K, x1 = 0.934	–	–	0.6149
301.15 K, x1 = 1	1126.24	1305.3	0.6091
306.15 K, x1 = 0.065	815.14	–	–
306.15 K, x1 = 0.099	–	1240.6	–
306.15 K, x1 = 0.113	–	–	2.009
306.15 K, x1 = 0.127	824.47	–	–
306.15 K, x1 = 0.186	834.67	–	–
306.15 K, x1 = 0.202	–	1234.6	–
306.15 K, x1 = 0.203	–	–	1.744
306.15 K, x1 = 0.26	848.61	–	–
306.15 K, x1 = 0.302	–	1230.6	–
306.15 K, x1 = 0.31	858.74	–	–
306.15 K, x1 = 0.314	–	–	1.473
306.15 K, x1 = 0.398	878.5	–	1.282
306.15 K, x1 = 0.401	–	1227.7	–
306.15 K, x1 = 0.469	–	–	1.093
306.15 K, x1 = 0.502	–	1225.5	–
306.15 K, x1 = 0.503	905.13	–	–
306.15 K, x1 = 0.516	–	–	0.9447
306.15 K, x1 = 0.54	915.83	–	–
306.15 K, x1 = 0.616	939	–	–
306.15 K, x1 = 0.619	–	1226.6	–
306.15 K, x1 = 0.62	–	–	0.7854
306.15 K, x1 = 0.699	967.99	–	–
306.15 K, x1 = 0.701	–	1230.2	–
306.15 K, x1 = 0.752	–	–	0.6945
306.15 K, x1 = 0.753	987.94	–	–
306.15 K, x1 = 0.801	–	–	0.6634
306.15 K, x1 = 0.802	1010.21	1241.7	–
306.15 K, x1 = 0.824	–	–	0.6288
306.15 K, x1 = 0.849	–	–	0.6161
306.15 K, x1 = 0.902	–	1262.1	–
306.15 K, x1 = 0.911	1064.52	–	–
306.15 K, x1 = 0.934	–	–	0.5661
306.15 K, x1 = 1	1119.36	1285.2	0.5636

C[N+](=O)[O-] [nitromethane] + [2H]OCCCCC
[2], x1 = 1
Conditions	mass density [kg/m3]	viscosity [mPa·s]
301.3 K	1126.04	0.6074
306.3 K	1119.15	0.5623

[2H]OCCCCC [pentan-1-ol-d]
[1]
Conditions	mass density [kg/m3]	speed of sound [m/s]	viscosity [mPa·s]
293.15 K	821.69	1282.3	–
295.15 K	819.5	1273.7	–
298.15 K	818.04	1265.1	–
300.15 K	816.42	1258.3	–
301.3 K	815.63	–	3.118
303.15 K	814.24	1248.5	–
305.15 K	813.1	1241.1	–
306.3 K	811.88	–	2.685
308.15 K	810.47	1230.8	–

[1], Capillary tube (Ostwald / Ubbelohde) method
Conditions	kinematic viscosity [m2/s]
293.15 K	4.99e-06
295.15 K	4.458e-06
298.15 K	4.238e-06
300.15 K	3.969e-06
303.15 K	3.685e-06
305.15 K	3.456e-06
308.15 K	3.148e-06

[2H]OCCCCC [pentan-1-ol-d] + C[N+](=O)[O-]
[2]
Conditions	mass density, 301.3 K [kg/m3]	mass density, 306.3 K [kg/m3]	viscosity, 301.3 K [mPa·s]	viscosity, 306.3 K [mPa·s]
x2 = 0	815.63	811.88	3.118	2.685
x2 = 0.07	825.73	821.85	–	–
x2 = 0.106	–	–	2.465	2.186
x2 = 0.154	839.37	835.21	–	–
x2 = 0.231	852.09	847.81	–	–
x2 = 0.245	–	–	1.937	1.678
x2 = 0.298	862.5	858.1	–	–
x2 = 0.385	879.49	873.8	–	–
x2 = 0.386	–	–	1.497	1.319
x2 = 0.503	906.93	904.01	–	–
x2 = 0.508	–	–	1.161	1.066
x2 = 0.551	920.64	917.49	–	–
x2 = 0.555	–	–	1.097	0.9975
x2 = 0.623	–	–	1.004	0.8782
x2 = 0.651	954.06	950.15	–	–
x2 = 0.679	–	–	0.9207	0.7937
x2 = 0.718	–	–	0.8419	0.729
x2 = 0.74	989.43	983.56	–	–
x2 = 0.749	–	–	0.7878	0.6974
x2 = 0.774	–	–	0.7451	0.6734
x2 = 0.847	1037.27	1031.12	–	–
x2 = 0.946	1090.5	1083.88	–	–

CCCCCO [pentan-1-ol]
[1]
Conditions	mass density [kg/m3]	speed of sound [m/s]	viscosity [mPa·s]
293.15 K	815.09	1290.7	–
295.15 K	812.74	1282.1	–
298.15 K	811.4	1273.6	–
300.15 K	809.72	1266.7	–
301.15 K	808.96	1263.3	3.113
303.15 K	807.41	1256.4	–
303.5 K	807.33	–	2.997
305.15 K	805.78	1249.4	–
306.15 K	805.17	1246.2	2.686
307.5 K	803.76	–	2.57
308.15 K	803.71	1239.3	–

[1], Capillary tube (Ostwald / Ubbelohde) method
Conditions	kinematic viscosity [m2/s]
293.15 K	4.96e-06
295.15 K	4.444e-06
298.15 K	4.223e-06
300.15 K	3.942e-06
303.15 K	3.635e-06
305.15 K	3.45e-06
308.15 K	3.129e-06

CCCCCO [pentan-1-ol] + C[N+](=O)[O-]
[2], x2 = 0
Conditions	mass density [kg/m3]	speed of sound [m/s]	viscosity [mPa·s]
301.15 K	808.96	1263.3	3.113
306.15 K	805.17	1246.2	2.686

CCCCCO [pentan-1-ol] + [2H]C([2H])([2H])[N+](=O)[O-]
[2], x2 = 0
Conditions	mass density [kg/m3]	viscosity [mPa·s]
303.5 K	807.33	2.997
307.5 K	803.76	2.57
